Data: patent publication US20100298376A1, “USE OF NOVEL NEUROPROTECTIVE 3-SUBSTITUTED INDOLONE COMPOSITIONS” (BOARD OF REGENTS, THE UNIVERSITY OF TEXAS SYSTEM, priority 2009, published 2010)
Where “and” joins values, the source holds several entries; their conditions need not be identical. Equal values may be shown once. Read-outs that look alike come from different tables or passages of the source.

What was measured:
[1] = test system: cerebellar granule neurons; conditions: for % neuronal survival Mean ± SD: Table 1, 24 hours, percent of HK control
Method: These compounds were analyzed for their neuroprotective activity in vitro. Granule neuron cultures were obtained from dissociated cerebella of 7-8 day old Wistar rats as known to one of ordinary skill in the art. Cells were plated in Basal Eagle's Medium with Earles salts (BME) supplemented with 10% fetal calf serum (FCS), 25 mM KCl, 2 mM glutamine (Invitrogen), and 100 μg/ml gentamycin on dishes (Nunc) coated with poly-L-lysine in 24-well dishes at a density 1×10^6 cells/well. Cytosine arabinofuranoside (10 μM) was added to the culture medium 18-22 hours after plating to prevent replication of non-neuronal cells that yields highly pure culture of granule neurons. The neuronal cultures were maintained for 7-8 days prior to treatments.
This experimental model of neuronal apoptosis has been used widely used to understand the molecular mechanisms underlying neurodegeneration and to identify biological and chemical agents with neuroprotective efficacy. For this, the cells were rinsed once and then maintained in low K^+ medium (serum-free BME medium, 5 mM KCl; referred to as LK), or in the case of control cultures, in high K^+ medium (serum-free BME medium, supplemented with 20 mM KCl; referred to as HK). Each compound was tested at three different concentrations of 1 μM, 5 μM, and 25 μM. The 25 μM concentration was included to evaluate neurotoxicity. For treatments, the chemical compounds (dissolved in dimethylsulfoxide) were added directly to LK medium at the time of the switch from HK at concentrations of 1 μM, 5 μM, or 25 μM. Viability was assessed 24 hours later. Each compound was tested in duplicate (at each of the concentrations) and the experiment repeated at least 3 times. Although all compounds were solubilized in dimethylsulfoxide (DMSO), the amount of DMSO in the cultures never exceeded 0.1% (v/v).
The viability status of neuronal cultures treated with HK, LK, or LK medium supplemented with various compounds was evaluated by phase contrast microscopy and quantified by staining cell nuclei with 4′,6′-diamidino2-phenylindole hydrochloride (DAPI). Briefly, the cells were fixed in 4% paraformaldehyde for 20 minutes at 4′C. After washing in phosphate buffered saline, DAPI (1 μg/ml in phosphate buffered saline) was added for 15 min at room-temperature and viewed under ultraviolet light (260 nm). Cells with condensed or fragmented nuclei were scored as dead. […] Statistical analysis was performed using an unpaired, two-tailed Student's t test, compared to mean neuronal survival of control cultures receiving LK treatment and the quantitative data are presented in Tables 1 and 2 for each compound.

[2] = Z/E isomer stability in DMSO-d6 by NMR; format: physicochemical; conditions: 6 hours from mixing
[3] = Solubility in the culture medium; conditions: 25 μM

O=C1Nc2ccc(Br)cc2/C1=C\c1cc(Br)c(O)c(Br)c1 [Compound 16, (E)-5-Bromo-3-(3′,5′-dibromo-4-hydroxybenzylidene)indolin-2-one]
neurotoxicity (in words) [1]: not toxic | neuroprotective activity (in words) ([1]; LK medium, concentration not specified): superior to Compound 1 | % neuronal survival Mean ± SD ([1]; 1 μM in LK medium): 88.4 ± 0.71 % | % neuronal survival Mean ± SD ([1]; 5 μM in LK medium): 98.7% and 98.7 ± 3.85 % | neuroprotective activity (in words) ([1]; at 1 μM and 5 μM (two lower concentrations)): highly protective | neuroprotective activity (in words) ([1]; at 5 μM): highly effective | percent of Z configuration after 6 hours [2]: 80% | solubility in the culture medium (in words) [3]: not completely soluble
